Assay results reported in patent US11697639B2, “Quaternary ammonium salt compound, preparation method therefor and use thereof” (WEST CHINA HOSPITAL, SICHUAN UNIVERSITY, priority 2018, dated 2023).
Structures can show the parent of a compound that is named as a salt.

System: rat's sciatic nerve
Assay: Rat sciatic nerve block, motor function by Postural Extensor Thrust (PET)
Assay type: in vivo
Conditions: 0.5 mL injected near sciatic nerve, test drugs 20 mmol/mL in distilled water, lidocaine 2%, levobupivacaine 0.75%
Method: (§1) For the dosage, the lidocaine group is 2% aqueous solution, the levobupivacaine group is 0.75% aqueous solution, and test drug groups are all distilled water solution at the concentration of 20 mmol/mL.
(§2) The injection volume for each rat or the control was 0.5 mL, which was guided by a nerve locator and injected near the rat's sciatic nerve. Using von Frey stimulator, the rats were stimulated the soles of the feet in the injected side, to observe the effect of local anesthesia. Meanwhile, Postural Extensor Thrust (PET) was used to evaluate the motor function of the rat: the rat was lifted vertically and the hindlimb in the injected side pedaled on the platform of the electronic balance. […] When the limb was completely paralyzed, the reading was the limb's own weight, about 20 g. If the measured value was more than half of the difference between the baseline and the limb weight, the motor function was regarded as recovery, and if the value was less than or equal to this difference, the motor function was regarded as loss.

First: CCCCN1CCCC[C@H]1C(=O)Nc1c(C)cccc1C [Levobupivacaine Hydrochloride, reference compound]
Second: CC[N+](C)(CCCN1CCCC[C@@H]1C(=O)Nc1c(C)cccc1C)CC(=O)Nc1c(C)cccc1C (stereo partly drawn) [example 16]
The “Time of motor block (Median)” value of the first is 7.6-fold lower: 2.5 h for the first, 19 h for the second.

`CCC[N+](CC)(CCCCCCCN1CCCC[C@@H]1C(=O)Nc1c(C)ccc(C(=O)O)c1C)CC(=O)Nc1c(C)ccc(OC)c1C.[Br-]` (stereo partly drawn) [example 28] and `CCC[N+](CC)(CCCCCCCCN1CCCC1C(=O)Nc1c(C)ccc(C#N)c1C)CC(=O)Nc1c(C)ccc(C(=O)OC)c1C.[Br-]` (stereo not drawn) [example 26] are the same in “Time of motor block (Median)” value: 18 h for the first, 18 h for the second.

Compared with `CCC[N+](CC)(CCCCCCCCN1CCCCC1C(=O)Nc1c(C)cccc1C)CC(=O)Nc1c(C)ccc(Br)c1C` (stereo not drawn) [example 11], `CCC[N+](CC)(CCCCCCCCN1CCCCC1C(=O)Nc1c(C)cccc1C)CC(=O)Nc1c(C)cccc1C.[Br-]` (stereo not drawn) [example 21] is 1.6-fold higher in “Time of motor block (Median)” value: 11 h for the first, 18 h for the second.

Compared with `Br.CCC[N+](CC)(CCCN1CCCCC1C(=O)Nc1c(C)ccc(S)c1C)CC(=O)Nc1c(C)cc(O)cc1C.[Br-]` (stereo not drawn) [example 18], `CCC[N+](CC)(CCCCCN1CCCCC1C(=O)Nc1c(C)cccc1C)CC(=O)Nc1c(C)cc([N+](=O)[O-])cc1C` (stereo not drawn) [example 3] is 2.1-fold lower in “Time of motor block (Median)” value: 21 h for the first, 10 h for the second.

`CC[N+](C)(CCCN1CCCCC1C(=O)Nc1c(C)cccc1C)CC(=O)Nc1c(C)ccc(Cl)c1C` (stereo not drawn) [example 6] and `CCC[N+](CC)(CCCCCCCCN1CCCC[C@H]1C(=O)Nc1c(C)cccc1C)CC(=O)Nc1c(C)cccc1C.[Br-]` (stereo partly drawn) [example 19] are within 1.5-fold of each other in “Time of motor block (Median)” value: 19 h for the first, 22 h for the second.

Compared with `CC[N+](C)(CCCN(C)CC(=O)Nc1c(C)cccc1C)CC(=O)Nc1c(C)cccc1C` (stereo not drawn) [example 9], `CCC[N+](CC)(CCCCN1C(C)CCCC1C(=O)Nc1c(C)cccc1C(C)C)CC(=O)Nc1c(C)cccc1C(C)C.[Br-]` (stereo not drawn) [example 20] is 2-fold higher in “Time of motor block (Median)” value: 10 h for the first, 20 h for the second.

`CCC[N+](CC)(CCCN1CCCC[C@@H]1C(=O)Nc1c(C)ccc(C(=O)OC)c1C)CC(=O)Nc1c(C)ccc(N)c1C.O=C(O)C(O)C(O)C(=O)O.[Br-]` (stereo partly drawn) [example 30] and `CCC[N+](C)(CCCCCN1CCCCC1C(=O)Nc1c(C)cc(C)cc1C)CC(=O)Nc1c(C)cc(C#N)cc1C` (stereo not drawn) [example 13] are within 1.5-fold of each other in “Time of motor block (Median)” value: 19 h for the first, 17 h for the second.

System: back skin of rat
Assay: Local anesthetic effect by subcutaneous infiltration in rat back skin (Von Frey 100 g)
Assay type: in vivo
Conditions: 0.5 mL in saline, compound 6 mmol/L, bupivacaine 23 mmol/L, 10 rats per compound
Method: After the back of rat weighing 250-300 g was shaved and disinfected, a circle with a diameter of about 1.5 cm was drawn on the side of the exposed back, and the circle is divided into 6 equal parts. […] Among the Von Frey fiber yarns, the one with a strength of 100 g was bound to the needle for local skin stimulation. One minute After the drug was injected, the above method was used to stimulate in 6 divisions. […] If back skin contraction was observed, the local anesthetic effect was considered as loss. […] Each compound was tested with 10 rats.

First: CCCCN1CCCC[C@H]1C(=O)Nc1c(C)cccc1C [Levobupivacaine Hydrochloride, reference compound]
Second: CC[N+](C)(CCCN1CCCCC1C(=O)Nc1c(C)cccc1C)CC(=O)Nc1c(C)ccc(Cl)c1C (stereo not drawn) [example 6]
The “Lasting time of local anesthesia (Median)” value (from here on “Lasting time”) of the first is 6.7-fold lower: 7 h for the first, 47 h for the second.

`CCC[N+](CC)(CCCCCCCCN1CCCCC1C(=O)Nc1c(C)cccc1C)CC(=O)Nc1c(C)ccc(Br)c1C` (stereo not drawn) [example 11] and `CCC[N+](CC)(CCCCCN1CCCCC1C(=O)Nc1c(C)cccc1C)CC(=O)Nc1c(C)cc([N+](=O)[O-])cc1C` (stereo not drawn) [example 3] are within 1.5-fold of each other in “Lasting time” value: 54 h for the first, 37 h for the second.

Going from `CC[N+](C)(CCCN(C)CC(=O)Nc1c(C)cccc1C)CC(=O)Nc1c(C)cccc1C` (stereo not drawn) [example 9] to `CCC[N+](C)(CCCCCN1CCCCC1C(=O)Nc1c(C)cc(C)cc1C)CC(=O)Nc1c(C)cc(C#N)cc1C` (stereo not drawn) [example 13], the “Lasting time” value rises from 28 h to 45 h (1.6-fold).

`CCCCN1CCCC[C@H]1C(=O)Nc1c(C)cccc1C` [Levobupivacaine Hydrochloride, reference compound] and `CC[N+](C)(CCCN1CCCCC1C(=O)Nc1c(C)cccc1C)CC(=O)Nc1c(C)ccc(Cl)c1C` (stereo not drawn) [example 6] are the same in “Local anesthesia onset time (Median)” value: 1 min for the first, 1 min for the second.

`CCC[N+](CC)(CCCCCCCCN1CCCCC1C(=O)Nc1c(C)cccc1C)CC(=O)Nc1c(C)ccc(Br)c1C` (stereo not drawn) [example 11] and `CCC[N+](CC)(CCCCCN1CCCCC1C(=O)Nc1c(C)cccc1C)CC(=O)Nc1c(C)cc([N+](=O)[O-])cc1C` (stereo not drawn) [example 3] are the same in “Local anesthesia onset time (Median)” value: 1 min for the first, 1 min for the second.

First: CC[N+](C)(CCCN(C)CC(=O)Nc1c(C)cccc1C)CC(=O)Nc1c(C)cccc1C (stereo not drawn) [example 9]
Second: CCC[N+](C)(CCCCCN1CCCCC1C(=O)Nc1c(C)cc(C)cc1C)CC(=O)Nc1c(C)cc(C#N)cc1C (stereo not drawn) [example 13]
The “Local anesthesia onset time (Median)” value of the first is 2-fold higher: 2 min for the first, 1 min for the second.

System: rat's sciatic nerve
Assay: Rat sciatic nerve block, sensory block tested with von Frey stimulator
Assay type: in vivo
Conditions: 0.5 mL injected near sciatic nerve, test drugs 20 mmol/mL in distilled water, lidocaine 2%, levobupivacaine 0.75%, 8 rats per group
Method: as §1, §2

`CCCCN1CCCC[C@H]1C(=O)Nc1c(C)cccc1C` [Levobupivacaine Hydrochloride, reference compound] and `CC[N+](C)(CCCN1CCCC[C@@H]1C(=O)Nc1c(C)cccc1C)CC(=O)Nc1c(C)cccc1C` (stereo partly drawn) [example 16] are the same in “Local anesthesia onset time (Median)” value: 1 min for the first, 1 min for the second.

`CCC[N+](CC)(CCCCCCCN1CCCC[C@@H]1C(=O)Nc1c(C)ccc(C(=O)O)c1C)CC(=O)Nc1c(C)ccc(OC)c1C.[Br-]` (stereo partly drawn) [example 28] and `CCC[N+](CC)(CCCCCCCCN1CCCC1C(=O)Nc1c(C)ccc(C#N)c1C)CC(=O)Nc1c(C)ccc(C(=O)OC)c1C.[Br-]` (stereo not drawn) [example 26] are within 1.5-fold of each other in “Local anesthesia onset time (Median)” value: 4 min for the first, 3 min for the second.

`CCC[N+](CC)(CCCCCCCCN1CCCCC1C(=O)Nc1c(C)cccc1C)CC(=O)Nc1c(C)ccc(Br)c1C` (stereo not drawn) [example 11] and `CCC[N+](CC)(CCCCCCCCN1CCCCC1C(=O)Nc1c(C)cccc1C)CC(=O)Nc1c(C)cccc1C.[Br-]` (stereo not drawn) [example 21] are the same in “Local anesthesia onset time (Median)” value: 1 min for the first, 1 min for the second.

`Br.CCC[N+](CC)(CCCN1CCCCC1C(=O)Nc1c(C)ccc(S)c1C)CC(=O)Nc1c(C)cc(O)cc1C.[Br-]` (stereo not drawn) [example 18] and `CCC[N+](CC)(CCCCCN1CCCCC1C(=O)Nc1c(C)cccc1C)CC(=O)Nc1c(C)cc([N+](=O)[O-])cc1C` (stereo not drawn) [example 3] are the same in “Local anesthesia onset time (Median)” value: 1 min for the first, 1 min for the second.

First: CC[N+](C)(CCCN1CCCCC1C(=O)Nc1c(C)cccc1C)CC(=O)Nc1c(C)ccc(Cl)c1C (stereo not drawn) [example 6]
Second: CCC[N+](CC)(CCCCCCCCN1CCCC[C@H]1C(=O)Nc1c(C)cccc1C)CC(=O)Nc1c(C)cccc1C.[Br-] (stereo partly drawn) [example 19]
The “Local anesthesia onset time (Median)” value of the first is 3-fold higher: 3 min for the first, 1 min for the second.

Going from `CC[N+](C)(CCCN(C)CC(=O)Nc1c(C)cccc1C)CC(=O)Nc1c(C)cccc1C` (stereo not drawn) [example 9] to `CCC[N+](CC)(CCCCN1C(C)CCCC1C(=O)Nc1c(C)cccc1C(C)C)CC(=O)Nc1c(C)cccc1C(C)C.[Br-]` (stereo not drawn) [example 20], the “Local anesthesia onset time (Median)” value falls from 5 min to 2 min (2.5-fold).

First: CCC[N+](CC)(CCCN1CCCC[C@@H]1C(=O)Nc1c(C)ccc(C(=O)OC)c1C)CC(=O)Nc1c(C)ccc(N)c1C.O=C(O)C(O)C(O)C(=O)O.[Br-] (stereo partly drawn) [example 30]
Second: CCC[N+](C)(CCCCCN1CCCCC1C(=O)Nc1c(C)cc(C)cc1C)CC(=O)Nc1c(C)cc(C#N)cc1C (stereo not drawn) [example 13]
The “Local anesthesia onset time (Median)” value of the first is 4-fold higher: 4 min for the first, 1 min for the second.

Same assay, conditions: 0.5 mL injected near sciatic nerve, test drugs 20 mmol/mL in distilled water, lidocaine 2%, levobupivacaine 0.75%, von Frey

Going from `CCCCN1CCCC[C@H]1C(=O)Nc1c(C)cccc1C` [Levobupivacaine Hydrochloride, reference compound] to `CC[N+](C)(CCCN1CCCC[C@@H]1C(=O)Nc1c(C)cccc1C)CC(=O)Nc1c(C)cccc1C` (stereo partly drawn) [example 16], the “Time of sensory block (Median)” value rises from 2.5 h to 25 h (10-fold).

`CCC[N+](CC)(CCCCCCCN1CCCC[C@@H]1C(=O)Nc1c(C)ccc(C(=O)O)c1C)CC(=O)Nc1c(C)ccc(OC)c1C.[Br-]` (stereo partly drawn) [example 28] and `CCC[N+](CC)(CCCCCCCCN1CCCC1C(=O)Nc1c(C)ccc(C#N)c1C)CC(=O)Nc1c(C)ccc(C(=O)OC)c1C.[Br-]` (stereo not drawn) [example 26] are within 1.5-fold of each other in “Time of sensory block (Median)” value: 26 h for the first, 25 h for the second.

`CCC[N+](CC)(CCCCCCCCN1CCCCC1C(=O)Nc1c(C)cccc1C)CC(=O)Nc1c(C)ccc(Br)c1C` (stereo not drawn) [example 11] and `CCC[N+](CC)(CCCCCCCCN1CCCCC1C(=O)Nc1c(C)cccc1C)CC(=O)Nc1c(C)cccc1C.[Br-]` (stereo not drawn) [example 21] are within 1.5-fold of each other in “Time of sensory block (Median)” value: 34 h for the first, 24 h for the second.

`Br.CCC[N+](CC)(CCCN1CCCCC1C(=O)Nc1c(C)ccc(S)c1C)CC(=O)Nc1c(C)cc(O)cc1C.[Br-]` (stereo not drawn) [example 18] and `CCC[N+](CC)(CCCCCN1CCCCC1C(=O)Nc1c(C)cccc1C)CC(=O)Nc1c(C)cc([N+](=O)[O-])cc1C` (stereo not drawn) [example 3] are within 1.5-fold of each other in “Time of sensory block (Median)” value: 31 h for the first, 27 h for the second.

`CC[N+](C)(CCCN1CCCCC1C(=O)Nc1c(C)cccc1C)CC(=O)Nc1c(C)ccc(Cl)c1C` (stereo not drawn) [example 6] and `CCC[N+](CC)(CCCCCCCCN1CCCC[C@H]1C(=O)Nc1c(C)cccc1C)CC(=O)Nc1c(C)cccc1C.[Br-]` (stereo partly drawn) [example 19] are within 1.5-fold of each other in “Time of sensory block (Median)” value: 30 h for the first, 29 h for the second.

`CC[N+](C)(CCCN(C)CC(=O)Nc1c(C)cccc1C)CC(=O)Nc1c(C)cccc1C` (stereo not drawn) [example 9] and `CCC[N+](CC)(CCCCN1C(C)CCCC1C(=O)Nc1c(C)cccc1C(C)C)CC(=O)Nc1c(C)cccc1C(C)C.[Br-]` (stereo not drawn) [example 20] are within 1.5-fold of each other in “Time of sensory block (Median)” value: 24 h for the first, 25 h for the second.

`CCC[N+](CC)(CCCN1CCCC[C@@H]1C(=O)Nc1c(C)ccc(C(=O)OC)c1C)CC(=O)Nc1c(C)ccc(N)c1C.O=C(O)C(O)C(O)C(=O)O.[Br-]` (stereo partly drawn) [example 30] and `CCC[N+](C)(CCCCCN1CCCCC1C(=O)Nc1c(C)cc(C)cc1C)CC(=O)Nc1c(C)cc(C#N)cc1C` (stereo not drawn) [example 13] are within 1.5-fold of each other in “Time of sensory block (Median)” value: 28 h for the first, 25 h for the second.
